Test results: ChEMBL document CHEMBL1933049, “Methylenebissantin: a rare methylene-bridged bisflavonoid from Dodonaea viscosa which inhibits Plasmodium falciparum enoyl-ACP reductase” (Bioorg Med Chem Lett, 2012); call rule not given here

target: T1, Enoyl-acyl-carrier protein reductase (Plasmodium falciparum, UniProt Q965D5); experiment: Inhibition of Plasmodium falciparum enoyl-ACP reductase assessed as oxidation of NADH to NAD+ after 10 mins by spectrophotometric analysis; details: not given
T1 sequence (Q965D5 whole entry): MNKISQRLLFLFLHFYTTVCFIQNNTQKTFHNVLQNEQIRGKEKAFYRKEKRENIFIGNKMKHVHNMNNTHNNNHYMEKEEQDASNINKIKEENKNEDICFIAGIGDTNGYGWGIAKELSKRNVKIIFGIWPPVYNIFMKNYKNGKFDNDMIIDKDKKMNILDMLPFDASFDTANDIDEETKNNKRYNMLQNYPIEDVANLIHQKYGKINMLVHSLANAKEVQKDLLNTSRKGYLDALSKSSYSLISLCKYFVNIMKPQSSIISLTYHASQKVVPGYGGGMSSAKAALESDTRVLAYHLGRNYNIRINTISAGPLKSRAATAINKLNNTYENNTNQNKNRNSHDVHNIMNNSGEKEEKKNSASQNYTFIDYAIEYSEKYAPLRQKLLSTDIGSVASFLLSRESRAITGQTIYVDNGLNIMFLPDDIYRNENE

Structure (SMILES) | IC50
CCCCCCCCCCCCCCCCCCCCCCOC(=O)/C=C/c1ccc(O)c(O)c1 [DOCOSYL CAFFEATE] | Not Active
CC(C)=CCc1cc(O[C@@H]2O[C@H](CO)[C@@H](O)[C@H](O)[C@H]2O)ccc1O [NEBRODENSIDE A] | Not Active
C[C@H]1C[C@@H](O)[C@]2(C)C(C(=O)O)=CCC[C@H]2[C@]1(C)CCc1ccoc1 | Not Active
COc1c(-c2ccc(O)cc2)oc2cc(O)cc(O)c2c1=O [ISOKAEMPFERIDE] | Not Active

same assay, conditions: read-out: IC50

Structure (SMILES) | IC50 [µM]
COc1cc(C(=O)O)ccc1O [VANILLIC ACID] | 920
COc1ccc(-c2oc3c(Cc4c(O)c(OC)c(O)c5c(=O)c(OC)c(-c6ccc(OC)cc6)oc45)c(O)c(OC)c(O)c3c(=O)c2OC)cc1 [METHYLENEBISSANTIN] | 91.1
